Results reported in ChEMBL document CHEMBL1201862, “PubChem BioAssay data set” (2004).
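Compound exposure: 48 hours, 5 concentrations, 96-well plates. GI50: concentration for 50% inhibition of growth.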 Calls of active or inactive are those of the source. No stated cut-off is given here; in the data, active = GI50 up to about 1.1 µM and inactive = higher.

What was measured:
Assay in all cases: growth of human tumour cells (NCI), 48 h
NCI-H460 = tested on: NCI-H460
SNB-19 = tested on: SNB-19
MDA-MB-435 = tested on: MDA-MB-435
OVCAR-8 = tested on: OVCAR-8
T47D = tested on: T47D
UO-31 = tested on: UO-31
SNB-75 = tested on: SNB-75
NCI/ADR-RES = tested on: NCI/ADR-RES
A549 = tested on: A549
SK-MEL-2 = tested on: SK-MEL-2
TK-10 = tested on: TK-10
KM12 = tested on: KM12
SW-620 = tested on: SW-620
SK-MEL-28 = tested on: SK-MEL-28
MDA-MB-231 = tested on: MDA-MB-231
ACHN = tested on: ACHN
SN12C = tested on: SN12C
UACC-62 = tested on: UACC-62
RPMI-8226 = tested on: RPMI-8226
SF-295 = tested on: SF-295

| Compound | GI50 (NCI-H460) | GI50 (SNB-19) | GI50 (MDA-MB-435) | GI50 (OVCAR-8) | GI50 (T47D) | GI50 (UO-31) | GI50 (SNB-75) | GI50 (NCI/ADR-RES) | GI50 (A549) | GI50 (SK-MEL-2) | GI50 (TK-10) | GI50 (KM12) | GI50 (SW-620) | GI50 (SK-MEL-28) | GI50 (MDA-MB-231) | GI50 (ACHN) | GI50 (SN12C) | GI50 (UACC-62) | GI50 (RPMI-8226) | GI50 (SF-295) |
| --- | --- | --- | --- | --- | --- | --- | --- | --- | --- | --- | --- | --- | --- | --- | --- | --- | --- | --- | --- | --- |
| Cc1cc2cc3c(O)nc(O)nc3nc2cc1C | > 100 µM (inactive) | > 100 µM (inactive) | > 100 µM (inactive) | > 100 µM (inactive) | > 100 µM (inactive) | > 100 µM (inactive) | 27.6 µM (inactive) | > 100 µM (inactive) | > 100 µM (inactive) | > 100 µM (inactive) | > 100 µM (inactive) | > 100 µM (inactive) | > 100 µM (inactive) | > 100 µM (inactive) | > 100 µM (inactive) | > 100 µM (inactive) | > 100 µM (inactive) | > 100 µM (inactive) | > 100 µM (inactive) | > 100 µM (inactive) |
| N#Cc1c(N)c2c(c(-c3ccccc3)c1-c1ccccc1)C(=O)N(O)C2=O | 47.1 µM (inactive) | 37.8 µM (inactive) | 79.4 µM (inactive) | > 100 µM (inactive) | 22.8 µM (inactive) | 37 µM (inactive) | 34 µM (inactive) | > 100 µM (inactive) | 31 µM (inactive) | 41 µM (inactive) | 91.4 µM (inactive) | 29.6 µM (inactive) | 96.8 µM (inactive) | 40.7 µM (inactive) | > 100 µM (inactive) | > 100 µM (inactive) | > 100 µM (inactive) | 39.9 µM (inactive) | 42.4 µM (inactive) | 38.7 µM (inactive) |
| O=c1c(O)c(-c2cc(O)c(O)cc2O)oc2cc(O)c(C3OC(CO)C(O)C(O)C3O)c(O)c12 (stereo not given) | > 100 µM (inactive) | > 100 µM (inactive) | > 100 µM (inactive) | > 100 µM (inactive) | > 100 µM (inactive) | > 100 µM (inactive) | 45.1 µM (inactive) | > 100 µM (inactive) | > 100 µM (inactive) | > 100 µM (inactive) | > 100 µM (inactive) | > 100 µM (inactive) | > 100 µM (inactive) | > 100 µM (inactive) | > 100 µM (inactive) | > 100 µM (inactive) | > 100 µM (inactive) | > 100 µM (inactive) | > 100 µM (inactive) | > 100 µM (inactive) |
| COc1ccc2nc3c([N+](=O)[O-])ccc(NCCCN(C)C)c3c(N)c2c1 | 1.21 µM (inactive) | 2.01 µM (inactive) | 1.77 µM (inactive) | 1.75 µM (inactive) | 1.92 µM (inactive) | 2.14 µM (inactive) | 1.66 µM (inactive) | 1.64 µM (inactive) | 1.49 µM (inactive) | 2.39 µM (inactive) | 1.62 µM (inactive) | 1.51 µM (inactive) | 0.405 µM (active) | 1.62 µM (inactive) | 1.28 µM (inactive) | 1.14 µM (inactive) | 1.6 µM (inactive) | 1.82 µM (inactive) | 1.15 µM (inactive) | 1.37 µM (inactive) |
| Fc1cccc(C2SCC3=Nc4ccccc4CN32)c1 (stereo not given) | 37.9 µM (inactive) | 21.6 µM (inactive) | 33 µM (inactive) | 27 µM (inactive) | 57.3 µM (inactive) | 41.5 µM (inactive) | > 100 µM (inactive) | 11 µM (inactive) | 59.6 µM (inactive) | 13.4 µM (inactive) | 67.8 µM (inactive) | 95.5 µM (inactive) | > 100 µM (inactive) | 98.6 µM (inactive) | > 100 µM (inactive) | 36.9 µM (inactive) | > 100 µM (inactive) | 50.2 µM (inactive) | 36.8 µM (inactive) | 26.6 µM (inactive) |
| O=C(NCCCNCCCCNCCCNC(=O)c1cc(-c2ccccc2)nc2ccccc12)c1cc(-c2ccccc2)nc2ccccc12 | 2.32 µM (inactive) | 1.67 µM (inactive) | 1.8 µM (inactive) | 1.82 µM (inactive) | 2.63 µM (inactive) | 20.9 µM (inactive) | 1.85 µM (inactive) | 28.4 µM (inactive) | 2.12 µM (inactive) | 1.62 µM (inactive) | 8.07 µM (inactive) | 2.19 µM (inactive) | 2.62 µM (inactive) | 1.87 µM (inactive) | 7.06 µM (inactive) | 18.5 µM (inactive) | 2.23 µM (inactive) | 2.16 µM (inactive) | 2.16 µM (inactive) | 3.26 µM (inactive) |
| OC(c1cc(C23CC4CC(CC(C4)C2)C3)nc2c(Cl)cc(Cl)cc12)C1CCCCN1 (stereo not given) | 1.61 µM (inactive) | 1.6 µM (inactive) | 1.67 µM (inactive) | 2.36 µM (inactive) | 1.79 µM (inactive) | 0.204 µM (active) | 1.73 µM (inactive) | 2.06 µM (inactive) | 1.82 µM (inactive) | 1.87 µM (inactive) | 1.84 µM (inactive) | 1.67 µM (inactive) | 1.57 µM (inactive) | 2.06 µM (inactive) | 1.82 µM (inactive) | 1.69 µM (inactive) | 1.62 µM (inactive) | 1.76 µM (inactive) | 1.77 µM (inactive) | 1.67 µM (inactive) |
| N#CCCN(CCC#N)c1ccc(/C=C2\SC(=S)NC2=O)cc1 | > 100 µM (inactive) | 33.9 µM (inactive) | > 100 µM (inactive) | 44.2 µM (inactive) | > 100 µM (inactive) | > 100 µM (inactive) | 50.2 µM (inactive) | > 100 µM (inactive) | > 100 µM (inactive) | > 100 µM (inactive) | 85.3 µM (inactive) | > 100 µM (inactive) | > 100 µM (inactive) | > 100 µM (inactive) | 30.3 µM (inactive) | 41.5 µM (inactive) | > 100 µM (inactive) | > 100 µM (inactive) | > 100 µM (inactive) | 39.4 µM (inactive) |
| O=C(O)CCCN1CCCCC1 | > 100 µM (inactive) | > 100 µM (inactive) | > 100 µM (inactive) | > 100 µM (inactive) | > 100 µM (inactive) | > 100 µM (inactive) | > 100 µM (inactive) | > 100 µM (inactive) | > 100 µM (inactive) | > 100 µM (inactive) | > 100 µM (inactive) | > 100 µM (inactive) | > 100 µM (inactive) | > 100 µM (inactive) | > 100 µM (inactive) | > 100 µM (inactive) | > 100 µM (inactive) | > 100 µM (inactive) | > 100 µM (inactive) | > 100 µM (inactive) |
| O=[N+]([O-])c1sc2ccc(Cl)cc2c1Nc1ccc(Cl)cc1 | > 100 µM (inactive) | > 100 µM (inactive) | > 100 µM (inactive) | > 100 µM (inactive) | > 100 µM (inactive) | > 100 µM (inactive) | > 100 µM (inactive) | > 100 µM (inactive) | > 100 µM (inactive) | > 100 µM (inactive) | > 100 µM (inactive) | > 100 µM (inactive) | > 100 µM (inactive) | > 100 µM (inactive) | > 100 µM (inactive) | > 100 µM (inactive) | > 100 µM (inactive) | > 100 µM (inactive) | > 100 µM (inactive) | > 100 µM (inactive) |
| CC(C)c1ccc2c(c1)[C@@]1(C)CC[C@H](C)C(C)(C)C1CC2 (stereo not given in full) | 18.6 µM (inactive) | 19.7 µM (inactive) | 16.9 µM (inactive) | 18.6 µM (inactive) | 26.1 µM (inactive) | 37.9 µM (inactive) | 17.2 µM (inactive) | 18.2 µM (inactive) | 17.4 µM (inactive) | 26.4 µM (inactive) | 17.6 µM (inactive) | 18 µM (inactive) | 47.8 µM (inactive) | 17 µM (inactive) | 19.5 µM (inactive) | 18.6 µM (inactive) | 17.7 µM (inactive) | 16.2 µM (inactive) | 18.4 µM (inactive) | 20.6 µM (inactive) |
| O=[N+]([O-])c1c(O)c2nonc2c2nn(-c3ccccc3)nc12 | > 100 µM (inactive) | > 100 µM (inactive) | > 100 µM (inactive) | > 100 µM (inactive) | > 100 µM (inactive) | 43.2 µM (inactive) | > 100 µM (inactive) | > 100 µM (inactive) | > 100 µM (inactive) | > 100 µM (inactive) | 55.3 µM (inactive) | > 100 µM (inactive) | > 100 µM (inactive) | > 100 µM (inactive) | > 10 µM (inactive) | > 100 µM (inactive) | > 100 µM (inactive) | > 100 µM (inactive) | > 100 µM (inactive) | > 100 µM (inactive) |
| CC(C)(C)c1ccc(-c2nnc(-c3cc(C#N)cc(-c4nnc(-c5ccc(C(C)(C)C)cc5)o4)c3)o2)cc1 | > 100 µM (inactive) | > 100 µM (inactive) | > 100 µM (inactive) | > 100 µM (inactive) | > 100 µM (inactive) | > 100 µM (inactive) | 88.9 µM (inactive) | > 100 µM (inactive) | > 100 µM (inactive) | > 100 µM (inactive) | > 100 µM (inactive) | > 100 µM (inactive) | > 100 µM (inactive) | > 100 µM (inactive) | > 100 µM (inactive) | > 100 µM (inactive) | > 100 µM (inactive) | > 100 µM (inactive) | > 100 µM (inactive) | > 100 µM (inactive) |
| CC(O)c1cc2c(s1)C(=O)c1c(C(C)O)csc1C2=O (stereo not given) | 0.0451 µM (active) | 0.33 µM (active) | 0.0252 µM (active) | 0.22 µM (active) | 0.167 µM (active) | 0.316 µM (active) | 0.316 µM (active) | 0.146 µM (active) | 0.184 µM (active) | 0.148 µM (active) | 0.544 µM (active) | 0.249 µM (active) | 0.118 µM (active) | 0.185 µM (active) | 0.063 µM (active) | 0.261 µM (active) | 0.138 µM (active) | 0.0589 µM (active) | 0.15 µM (active) | 0.123 µM (active) |
